Test results reported in patent publication EP3132692A1, “Compositions comprising small molecular inhibitors suitable to inhibit and stimulate signaling pathways in a manner leading to prevention of muscle atrophy” (priority 2015, dated 2017).

Experiments:
[1] = target: human DNA topoisomerase II (topo II); conditions: cited from earlier work
[2] = tested on: C. Elegans; conditions: cited from earlier work
[3] = tested on: PDE4 isomer; conditions: cited from earlier work
[4] = target: TGFβ-II receptor (Homo sapiens, UniProt P37173); conditions: 100µM; cited from earlier work
[5] = target: T1, PPARγ (Homo sapiens, UniProt P37231); conditions: cited from earlier work
T1 sequence (P37231 1-505): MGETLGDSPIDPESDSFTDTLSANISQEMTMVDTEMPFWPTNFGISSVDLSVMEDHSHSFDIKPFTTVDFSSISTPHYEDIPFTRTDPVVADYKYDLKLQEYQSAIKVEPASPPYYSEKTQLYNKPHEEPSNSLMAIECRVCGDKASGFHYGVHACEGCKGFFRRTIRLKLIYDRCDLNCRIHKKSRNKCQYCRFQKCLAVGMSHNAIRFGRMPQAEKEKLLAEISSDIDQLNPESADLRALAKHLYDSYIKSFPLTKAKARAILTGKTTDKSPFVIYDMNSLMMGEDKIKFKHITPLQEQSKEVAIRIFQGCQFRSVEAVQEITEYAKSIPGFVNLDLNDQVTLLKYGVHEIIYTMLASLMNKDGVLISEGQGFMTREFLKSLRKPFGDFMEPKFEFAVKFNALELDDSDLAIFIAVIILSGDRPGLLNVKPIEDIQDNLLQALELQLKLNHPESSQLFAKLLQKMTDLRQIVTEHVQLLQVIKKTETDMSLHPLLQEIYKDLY

[6] = target: T2, PPARα (Homo sapiens, UniProt Q07869); conditions: cited from earlier work
T2 sequence (Q07869 1-468): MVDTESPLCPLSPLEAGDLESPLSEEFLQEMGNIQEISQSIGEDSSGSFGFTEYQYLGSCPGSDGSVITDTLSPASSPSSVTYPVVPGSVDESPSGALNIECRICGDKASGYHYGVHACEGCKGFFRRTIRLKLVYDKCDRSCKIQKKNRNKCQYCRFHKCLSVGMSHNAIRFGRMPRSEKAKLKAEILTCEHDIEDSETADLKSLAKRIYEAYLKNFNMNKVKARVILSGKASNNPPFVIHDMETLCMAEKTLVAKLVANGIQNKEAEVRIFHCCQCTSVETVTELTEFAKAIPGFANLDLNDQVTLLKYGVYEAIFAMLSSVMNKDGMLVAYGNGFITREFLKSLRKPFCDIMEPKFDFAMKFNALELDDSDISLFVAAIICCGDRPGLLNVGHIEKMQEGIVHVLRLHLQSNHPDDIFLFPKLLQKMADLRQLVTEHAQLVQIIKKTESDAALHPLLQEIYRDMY

[7] = tested on: myoblast C2C12 cells; conditions: 100µM; low mitogen medium; cited from earlier work
[8] = tested on: mice subjected to freeze injury (tibialis); conditions: injections at 50mg/kg for six days; relative to control; cited from earlier work
[9] = via orange juice alongside 150 mL yogurt; cited from earlier work
[10] = tested on: UGT enzymes; conditions: after absorption; cited from earlier work
[11] = Body composition by dual energy x-ray absorptiometry (DEXA), efficacy study; format: in vivo, men
Description: (§1) In the efficacy study, 18 resistance trained men with at least 5 years of experience in weight lifting voluntarily participated. Participants were divided in 3 equal groups; receiving placebo (hypromellose, 2 times a day), (-)-epicatechin ((EPI), 2x 150 mg a day) and (-)-epicatechin combined with hesperetin and myricetin ((E+H+M), 2x 150+100+50 mg a day). Maximally trained individuals were chosen as further muscle gains in such groups are usually minimal, even with dietary interventions. This is primarily explained due to a fact that such trained individuals reached so called "natural genetic plateau" where muscle tissue works within physiological optimum defined by the genetic blueprints, so even radical interventions (except anabolic steroids) and exercise regime cannot bring significant results. This was confirmed by participants as they had no means to achieve particularly better results over last few years of exercise. All subjects were asked to maintain the same caloric intake during 12 week study 5 days a week exercise. During 2 months study participants were taking 30 g of post exercise amino acid blend (whey, soy and casein protein) with following profile per 100 g: • Alanine 7.1g, arginine 9.2 g, aspartic acid 6.2 g, glutamic acid 21.5 g, glycine 12.2 g, histidine 1.1 g, isoleucine 6.9 g, leucine 11.1 g, methionine 0.3 g, phenylalanine 2.7 g, proline 11.2 g, serine 2.7 g, threonine 1.5 g, tyrosine 0.5 g and valine 5.8 g.
(§2) Body composition was examined at the beginning and the end of study using dual energy x-ray absorptiometry - DEXA scans (DiscoveryTM by Hologic). Total body estimates of fat and non-bone lean tissue were determined according to company supplied algorithms. Muscle thickness for Vastus lateralis and Triceps brachii lateralis was examined at the beginning and the end of study by B-mode ultrasound imaging (Toshiba PowerVision 8000) as the distance between the subcutaneous adipose tissue and inter-muscular belly interface. Total Cretine Kinase as a marker of muscle damage was performed by VITROS® 4600 (Ortho Clinical Diagnostics) at the beginning and the end of study.

[12] = tested on: resistance trained men; experiment: Muscle thickness by B-mode ultrasound imaging, efficacy study; format: in vivo
Description: as §1, §2

[13] = tested on: aged men; conditions: treatment for 7 days; cited from earlier work
[14] = tested on: resistance trained men; experiment: Strength measures: 1-repetition maximum (1-RM) bench press and squat, efficacy study; format: in vivo
[15] = tested on: resistance trained men; experiment: Total creatine kinase as marker of muscle damage, efficacy study; format: in vivo
Description: as §1, with “During 2 months study participants were taking 30 g of post exercise amino acid blend (whey, soy and casein protein) with following profile per 100 g: • Alanine 7.1g, arginine 9.2 g, aspartic acid 6.2 g, glutamic acid 21.5 g, glycine 12.2 g, histidine 1.1 g, isoleucine 6.9 g, leucine 11.1 g, methionine 0.3 g, phenylalanine 2.7 g, proline 11.2 g, serine 2.7 g, threonine 1.5 g, tyrosine 0.5 g and valine 5.8 g.” left out
Body composition was examined at the beginning and the end of study using dual energy x-ray absorptiometry - DEXA scans (DiscoveryTM by Hologic). Total body estimates of fat and non-bone lean tissue were determined according to company supplied algorithms. […]

[16] = BEGGINING of study, resistance trained men
[17] = END of 12 week study, EPI 2x 150 mg a day, E+H+M 2x 150+100+50 mg a day

TGFβ-II receptor, sequence (P37173 23-567): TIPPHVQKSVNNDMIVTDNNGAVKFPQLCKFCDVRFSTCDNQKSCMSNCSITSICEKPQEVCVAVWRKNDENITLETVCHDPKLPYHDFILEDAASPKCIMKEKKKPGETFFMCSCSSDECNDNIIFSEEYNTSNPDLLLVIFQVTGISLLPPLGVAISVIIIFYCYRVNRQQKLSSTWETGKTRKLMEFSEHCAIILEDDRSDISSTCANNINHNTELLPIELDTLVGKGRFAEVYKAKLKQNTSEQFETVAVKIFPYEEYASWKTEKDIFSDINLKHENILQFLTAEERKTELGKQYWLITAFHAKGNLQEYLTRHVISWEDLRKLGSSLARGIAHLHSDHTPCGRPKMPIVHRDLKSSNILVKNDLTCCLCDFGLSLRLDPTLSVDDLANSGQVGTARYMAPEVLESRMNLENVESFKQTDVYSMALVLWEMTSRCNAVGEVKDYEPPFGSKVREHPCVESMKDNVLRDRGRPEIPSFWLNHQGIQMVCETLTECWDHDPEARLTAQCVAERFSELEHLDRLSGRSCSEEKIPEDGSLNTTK

## O=c1c(O)c(-c2cc(O)c(O)c(O)c2)oc2cc(O)cc(O)c12 [myricetin]
[1]
  IC50: 27.5 µM
[2]; C. Elegans
  prolongation of average lifespan: 18%
  prolongation of maximal lifespan: 21.7%
[2]; mev-1(kn1) mutants
  increase of average lifespan: 16%

## COc1ccc(C2CC(=O)c3c(O)cc(O)cc3O2)cc1O (stereo not shown) [hesperetin, 5,7,3'-trihydroxy-4'-methoxyflavanone]
[3]
  IC50: 28.2 ± 1.1 µM
[4]
  ability of a ligand to associate with the TGFβ-II receptor: approximately halve
[5]
  concentration range of concentration dependent stimulation of PPARγ activity: 20 to 160 µM
[6]
  concentration range of concentration dependent stimulation of PPARα activity: 20 to 160 µM

## COc1ccc(C2CC(=O)c3c(O)cc(OC4OC(COC5OC(C)C(O)C(O)C5O)C(O)C(O)C4O)cc3O2)cc1O (stereo not shown) [hesperidin, hesperetin-7-O-rutinoside]
[7]
  myocyte differentiation: able to promote myocyte differentiation
[8]
  muscle regenerative capabilities: significantly enhanced
[9]
  reduction of Cmax of the main metabolite (hesperitin-7-O-glucuronide): 29%
  reduction of overall exposure (AUC) of the main metabolite: 27%
[10]
  found as hesperetin monoglucuronide: up to 87%
  found as sulphoglucuronides: 13%

## Oc1cc(O)c2c(c1)O[C@H](c1ccc(O)c(O)c1)[C@H](O)C2 [EPI, (-)-epicatechin]
[11]; [16]
  Body fat: 11.2 ± 5.3 kg
  Body mass: 93.2 ± 14.6 kg
  Lean body mass: 76.4 ± 5.8 kg
[11]; [17]
  Body fat: 9.1 ± 4.2 kg
  Body mass: 93.8 ± 10.5 kg
  Lean body mass: 77.2 ± 5.8 kg
[12]; [16]
  Triceps Brachii Lateralis thickness: 30.8±4.4 mm
  Vastus Lateralis thickness: 23.8±3.9 mm
[12]; [17]
  Triceps Brachii Lateralis thickness: 33.8±2.2 mm
  Vastus Lateralis thickness: 24.6±2.9 mm
[13]
  hand grip strength: increases
  ratio of plasma follistatin/myostatin: increases
[14]; [16]
  1- RM BENCH PRESS: 148±21
  1-RM SQUAT: 153 ± 24 kg
[14]; [17]
  1-RM SQUAT: 170 ± 22 kg
[15]; [16]
  Total Creatine Kinase (CK reff range: 38-120 ng/ml): 86 ± 24 ng/mL
[15]; [17]
  Total Creatine Kinase (CK reff range: 38-120 ng/ml): 73 ± 16 ng/mL
